{
  "source": "patent US8962844B2",
  "about": "“1,3,4-oxadiazole and 1,3,4-thiadiazole β-lactamase inhibitors” (priority 2012, dated 2015)",
  "key": {"[1]": {"test_system": "bacterial strains that express the class D cephalosporinase OXA-15", "assay": "Standard BLI potentiation MIC / synergy MIC (sMIC) assays run in the presence of a β-lactam, OXA-15 expressing strains", "format": "cell-based, E. coli", "details": "BLI in combination with a β-lactam; comparison with Avibactam (comparator compound CCC)", "method_in_brief": "(§1)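 Isogenic E. coli DH10B carrying cloned β-lactamase genes on pBR322-derived plasmid (blaTEM-1 promoter, tetracycline 25 μg/mL) tested by CLSI broth microdilution in CAMHB. Test compound and β-lactam each diluted and combined; MIC reported in presence of β-lactam.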"}, "[2]": {"test_system": "bacterial strains that express KPC β-lactamases", "assay": "Standard BLI potentiation MIC / synergy MIC (sMIC) assays run in the presence of a β-lactam, KPC expressing strains", "format": "cell-based", "details": "more active for at least one KPC strain and/or better spectrum of activity than Avibactam; BLI in combination with a β-lactam", "method_in_brief": "as §1"}},
  "note": "Structures can show the parent of a compound that is named as a salt.",
  "data": [
    {"smiles": "O=C1N2C[C@@H](CC[C@H]2c2nnc(CCNC3CCNCC3)o2)N1OS(=O)(=O)O", "note": "[Compound 770, (2S,5R)-7-oxo-2-(5-(2-(piperidin-4-ylamino)ethyl)-1,3,4-oxadiazol-2-yl)-1,6-diazabicyclo[3.2.1]octan-6-yl hydrogen sulfate]", "values": [
      {"measurement": "activity against bacterial strains that express the class D cephalosporinase OXA-15, compared with Avibactam", "setting": "[1]", "value": "more active than Avibactam"},
      {"measurement": "activity and/or spectrum of activity against bacterial strains that express KPC β-lactamases, compared with Avibactam", "setting": "[2]", "value": "more active than Avibactam"}
    ]},
    {"smiles": "O=C1N2C[C@@H](CC[C@H]2c2nnc(CCCNC3CCNCC3)o2)N1OS(=O)(=O)O", "note": "[Compound 771, (2S,5R)-7-oxo-2-(5-(3-(piperidin-4-ylamino)propyl)-1,3,4-oxadiazol-2-yl)-1,6-diazabicyclo[3.2.1]octan-6-yl hydrogen sulfate]", "values": [
      {"measurement": "activity against bacterial strains that express the class D cephalosporinase OXA-15, compared with Avibactam", "setting": "[1]", "value": "more active than Avibactam"},
      {"measurement": "activity and/or spectrum of activity against bacterial strains that express KPC β-lactamases, compared with Avibactam", "setting": "[2]", "value": "more active than Avibactam"}
    ]},
    {"smiles": "O=C1N2C[C@@H](CC[C@H]2c2nnc(CCCCNC3CCNCC3)o2)N1OS(=O)(=O)O", "note": "[Compound 772, (2S,5R)-7-oxo-2-(5-(4-(piperidin-4-ylamino)butyl)-1,3,4-oxadiazol-2-yl)-1,6-diazabicyclo[3.2.1]octan-6-yl hydrogen sulfate]", "values": [
      {"measurement": "activity against bacterial strains that express the class D cephalosporinase OXA-15, compared with Avibactam", "setting": "[1]", "value": "more active than Avibactam"},
      {"measurement": "activity and/or spectrum of activity against bacterial strains that express KPC β-lactamases, compared with Avibactam", "setting": "[2]", "value": "more active than Avibactam"}
    ]},
    {"smiles": "NC1CCN(Cc2nnc([C@@H]3CC[C@@H]4CN3C(=O)N4OS(=O)(=O)O)o2)CC1", "note": "[Compound 774, (2S,5R)-2-(5-((4-aminopiperidin-1-yl)methyl)-1,3,4-oxadiazol-2-yl)-7-oxo-1,6-diazabicyclo[3.2.1]octan-6-yl hydrogen sulfate]", "values": [
      {"measurement": "activity against bacterial strains that express the class D cephalosporinase OXA-15, compared with Avibactam", "setting": "[1]", "value": "more active than Avibactam"},
      {"measurement": "activity and/or spectrum of activity against bacterial strains that express KPC β-lactamases, compared with Avibactam", "setting": "[2]", "value": "more active than Avibactam"}
    ]},
    {"smiles": "O=C1N2C[C@@H](CC[C@H]2c2nnc(CCN3CCNCC3)o2)N1OS(=O)(=O)O", "note": "[Compound 776, (2S,5R)-7-oxo-2-(5-(2-(piperazin-1-yl)ethyl)-1,3,4-oxadiazol-2-yl)-1,6-diazabicyclo[3.2.1]octan-6-yl hydrogen sulfate]", "values": [
      {"measurement": "activity against bacterial strains that express the class D cephalosporinase OXA-15, compared with Avibactam", "setting": "[1]", "value": "more active than Avibactam"},
      {"measurement": "activity and/or spectrum of activity against bacterial strains that express KPC β-lactamases, compared with Avibactam", "setting": "[2]", "value": "more active than Avibactam"}
    ]},
    {"smiles": "O=C1N2C[C@@H](CC[C@H]2c2nnc(CN3CCNCC3)o2)N1OS(=O)(=O)O", "note": "[Compound 777, (2S,5R)-7-oxo-2-(5-(piperazin-1-ylmethyl)-1,3,4-oxadiazol-2-yl)-1,6-diazabicyclo[3.2.1]octan-6-yl hydrogen sulfate]", "values": [
      {"measurement": "activity against bacterial strains that express the class D cephalosporinase OXA-15, compared with Avibactam", "setting": "[1]", "value": "more active than Avibactam"},
      {"measurement": "activity and/or spectrum of activity against bacterial strains that express KPC β-lactamases, compared with Avibactam", "setting": "[2]", "value": "more active than Avibactam"}
    ]},
    {"smiles": "O=C1N2C[C@@H](CC[C@H]2c2nnc([C@H]3CNCCN3)o2)N1OS(=O)(=O)O", "note": "[Compound 779, (2S,5R)-7-oxo-2-(5-((R)-piperazin-2-yl)-1,3,4-oxadiazol-2-yl)-1,6-diazabicyclo[3.2.1]octan-6-yl hydrogen sulfate]", "values": [
      {"measurement": "activity against bacterial strains that express the class D cephalosporinase OXA-15, compared with Avibactam", "setting": "[1]", "value": "more active than Avibactam"},
      {"measurement": "activity and/or spectrum of activity against bacterial strains that express KPC β-lactamases, compared with Avibactam", "setting": "[2]", "value": "more active than Avibactam"}
    ]},
    {"smiles": "C[n+]1ccc(-c2nnc([C@@H]3CC[C@@H]4CN3C(=O)N4OS(=O)(=O)[O-])o2)cc1", "note": "[Compound 782, (2S,5R)-2-(5-(1-methylpyridin-1-ium-4-yl)-1,3,4-oxadiazol-2-yl)-7-oxo-1,6-diazabicyclo[3.2.1]octan-6-yl sulfate]", "values": [
      {"measurement": "activity against bacterial strains that express the class D cephalosporinase OXA-15, compared with Avibactam", "setting": "[1]", "value": "more active than Avibactam"},
      {"measurement": "activity and/or spectrum of activity against bacterial strains that express KPC β-lactamases, compared with Avibactam", "setting": "[2]", "value": "more active than Avibactam"}
    ]}
  ]
}
